The supplement of paper PMC10307832

What was measured:
Assay in all cases: relative viability (nuclei count vs DMSO), 5 days (fraction); higher = more cells survive
GW-2580 + Pictilisib = compound: COC1=CC=C(C=C1)COC2=C(C=C(C=C2)CC3=CN=C(N=C3N)N)OC [GW-2580] + CS(=O)(=O)N1CCN(Cc2cc3nc(-c4cccc5[nH]ncc45)nc(N4CCOCC4)c3s2)CC1 [Pictilisib] (partner 1 µM)
Procedure, shortened: (§1)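 Each reported value is a median over duplicate plates. It expresses relative viability: treated-well nuclei count divided by vehicle-well nuclei count. Lung cancer cell lines in 1536-well plates were dosed by pin tool a day after seeding, alone with one drug or with a fixed anchor-drug dose plus five library-drug doses (not always all listed) in √10 steps, and nuclei were counted after 5 days.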

Fedratinib + Navitoclax = compound: Cc1cnc(Nc2ccc(OCCN3CCCC3)cc2)nc1Nc1cccc(S(=O)(=O)NC(C)(C)C)c1 [Fedratinib] + CC1(C)CCC(c2ccc(Cl)cc2)=C(CN2CCN(c3ccc(C(=O)NS(=O)(=O)c4ccc(N[C@H](CCN5CCOCC5)CSc5ccccc5)c(S(=O)(=O)C(F)(F)F)c4)cc3)CC2)C1 [Navitoclax] (partner 0.5 µM)
Procedure, shortened: as §1

GW-2580 + Trametinib = compound: COC1=CC=C(C=C1)COC2=C(C=C(C=C2)CC3=CN=C(N=C3N)N)OC [GW-2580] + CC(=O)Nc1cccc(-n2c(=O)n(C3CC3)c(=O)c3c(Nc4ccc(I)cc4F)n(C)c(=O)c(C)c32)c1 [Trametinib] (partner 0.02 µM)
Procedure, shortened: as §1

GW-2580 + Decitabine = compound: COC1=CC=C(C=C1)COC2=C(C=C(C=C2)CC3=CN=C(N=C3N)N)OC [GW-2580] + Nc1ncn([C@H]2C[C@H](O)[C@@H](CO)O2)c(=O)n1 [Decitabine] (partner 2 µM)
Procedure, shortened: as §1

Fedratinib + Dasatinib = compound: Cc1cnc(Nc2ccc(OCCN3CCCC3)cc2)nc1Nc1cccc(S(=O)(=O)NC(C)(C)C)c1 [Fedratinib] + Cc1nc(Nc2ncc(C(=O)Nc3c(C)cccc3Cl)s2)cc(N2CCN(CCO)CC2)n1 [Dasatinib] (partner 0.075 µM)
Procedure, shortened: as §1

Cell Line	relative viability (GW-2580 + Pictilisib; first compound 0.08 µM)	relative viability (GW-2580 + Pictilisib; first compound 0.8 µM)	relative viability (GW-2580 + Pictilisib; first compound 2.53 µM)	relative viability (GW-2580 + Pictilisib; first compound 8 µM)	relative viability (Fedratinib + Navitoclax; first compound 0.1 µM)	relative viability (Fedratinib + Navitoclax; first compound 0.3162 µM)	relative viability (Fedratinib + Navitoclax; first compound 1 µM)	relative viability (GW-2580 + Trametinib; first compound 0.08 µM)	relative viability (GW-2580 + Trametinib; first compound 0.8 µM)	relative viability (GW-2580 + Trametinib; first compound 2.53 µM)	relative viability (GW-2580 + Trametinib; first compound 8 µM)	relative viability (GW-2580 + Decitabine; first compound 0.08 µM)	relative viability (GW-2580 + Decitabine; first compound 0.8 µM)	relative viability (GW-2580 + Decitabine; first compound 2.53 µM)	relative viability (GW-2580 + Decitabine; first compound 8 µM)	relative viability (Fedratinib + Dasatinib; first compound 0.1 µM)	relative viability (Fedratinib + Dasatinib; first compound 0.3162 µM)	relative viability (Fedratinib + Dasatinib; first compound 1 µM)
EKVX	0.395	0.448	0.395	0.5	1.08	0.918	0.944	0.337	0.474	0.461	0.345	0.578	0.749	0.345	0.335	0.498	0.681	0.532
EPLC-272H	0.254	0.36	0.267	0.262	1.14	0.936	1.09	0.281	0.273		0.32	0.391	0.366		0.368	0.364	0.345	0.0536
NCI-H1395	0.626	0.584	0.561	0.632	1.3	1.13	0.962	0.975	0.969	0.988	1.08	0.793	0.689	0.753	0.776	0.36	0.45	0.378
NCI-H2126	0.483	0.497	0.448	0.452	0.852	0.831	0.86	0.547	0.575	0.5	0.649	0.582	0.614	0.574	0.569	0.577	0.655	0.426
LXF-289	0.82	0.849	0.653	0.672	0.925	0.875	0.939	0.724	0.708	0.688	0.651	0.358	0.391	0.407	0.368	0.249	0.158	0.203
NCI-H2009	0.924	0.982	0.652	0.809	1.13	1.19	1.1	0.284	0.262	0.266	0.273	0.415	0.427	0.378	0.482	0.232	0.241	0.185
NCI-H2405	0.432	0.505	0.319	0.529	0.583	0.895	0.506	0.68	0.586	0.596	0.563	0.739	0.766	0.746	0.729	0.191	0.244	0.159
NCI-H1755	0.489	0.461	0.321	0.372	1	0.972	0.894	0.786	0.838	0.777	0.702	0.695	0.714	0.757	0.654	0.351	0.404	0.39
HCC-78	0.242	0.245	0.171	0.227	0.676		0.834	0.838	0.844	0.644	0.768	0.699	0.786	0.634	0.698	0.384	0.309	0.306
LOU-NH91	0.527	0.549	0.502	0.535	0.588	0.786	0.575	0.796	0.857	0.738	0.827	0.82	0.861	0.782	0.905	0.518	0.518	0.557
NCI-H3122	0.586	0.611	0.584	0.576	1.01	0.964	1.01	0.305	0.264	0.18	0.234	0.377	0.411	0.437	0.54	0.747	0.738	0.816
HCC-827	1.01	1.01	0.949	0.963	0.949	1.01	1.06	0.555	0.552	0.483	0.568	0.275	0.317	0.299	0.319	0.249	0.344	0.298
SK-LU-1	0.621	0.63	0.461	0.557		0.917	0.611	0.498	0.437	0.375	0.518	0.631	0.673	0.55	0.668	0.143	0.169	0.165
NCI-H1975	0.294	0.325	0.29	0.29	1.08	1.01	0.953	0.34	0.38	0.306	0.275	0.417	0.455	0.376	0.4	0.329	0.362	0.285
NCI-H1651	0.65	0.707	0.597	0.599	0.914	0.958	1.07	0.795	0.849	0.786	0.807	0.565	0.666	0.551	0.548	0.437	0.418	0.329
NCI-H441	0.505	0.587	0.379	0.436	0.534	0.341	0.574	0.409	0.463	0.483	0.374	0.207	0.198	0.243	0.222	0.618	0.314	0.493
LCLC-97TM1	0.197		0.159	0.181	0.275	0.394	0.412	0.189	0.196	0.192	0.196	0.241	0.224	0.213	0.209	0.822	0.831	0.723
